Reference: publication PMC8777805, “Interactions of Nereistoxin and Its Analogs with Vertebrate Nicotinic Acetylcholine Receptors and Molluscan ACh Binding Proteins” (Marine Drugs, 2022)
Like-named read-outs stand apart in the source and are kept apart here.

How the values were obtained:
rat brain α7 nAChR = target: T1, rat brain α7 nAChR (Rattus norvegicus, UniProt Q05941); experiment: [125I]-α-BTX displacement, rat brain membranes; type: binding
T1 construct: from tissue; host or cells: whole rat brain membranes

[1] = target: T2, Torpedo electric organ muscle type nAChR (Tetronarce californica, UniProt P02710+P02714+P02718); experiment: [125I]-α-BTX displacement, Torpedo electric organ membranes; type: binding
T2 construct: from tissue; host or cells: Torpedo californica electric organ washed membranes

[2] = target: T3, A. californica BP Y55W mutant (Aplysia californica, UniProt Q8WSF8, Y72W); experiment: [3H]-epibatidine scintillation proximity binding assay, Ac AChBP Y55W mutant; settings: inhibition of [3H]-epibatidine binding; read-out: IC50 ± SEM, Ac BP Y55W
T3 construct: made in house
Method: (§1) The AChBP proteins were expressed and purified according to Hansen et al.. Determination of compound affinity for an AChBP utilized a modification of the Scintillation Proximity Assay reported previously. Briefly, the AChBP constructs (0.5–1.0 nM final concentration of binding sites) were combined with polyvinyltoluene anti-mouse SPA scintillation beads (0.17 mg/mL final concentration, Perkin Elmer), monoclonal anti-FLAG M2 antibody from mouse 1:8000 dilution (Sigma), and 0.1 M NaPO4 buffer, pH 7.0. This cocktail was distributed to a 96-well plate and incubated with either vehicle (total binding), unknown sample (10 µM final concentration), or a saturating concentration (10 µM) of the known competitive ligand methyllycaconitine to determine the nonspecific binding. The radioligand (±)-[^3H]-epibatidine (Perkin Elmer, 5 nM final concentration) was added to each well with varying the concentrations of competing ligand and allowed to incubate at room temperature for 1 hr. Plates were read on a 1450 MicroBeta TriLux liquid scintillation counter (Wallac) and the output normalized. All measurements were conducted in duplicate a minimum of 3 times. The IC50 values were calculated using GraphPad Prism version 4.02 (GraphPad Software, 2006, San Diego, CA, USA, www.graphpad.com).

Lymnaea stagnalis AChBP = target: T4, Lymnaea stagnalis AChBP (Lymnaea stagnalis, UniProt P58154); experiment: [3H]-epibatidine scintillation proximity binding assay, Ls AChBP; settings: inhibition of [3H]-epibatidine binding; read-out: IC50 ± SEM, Ls BP
T4 construct: made in house
Method: as §1

rat brain α4β2 nAChRs = target: T5, rat brain α4β2 nAChRs (Rattus norvegicus, UniProt P09483+P12390); experiment: [3H]-cytisine displacement, rat brain membranes; type: binding
T5 construct: from tissue; host or cells: whole rat brain membranes
Method: Rat brain membranes (100 μg of protein) expressing […] α4β2 nAChRs were incubated with 0.5 nM [^3H]-cytisine in a final volume of 500 µL binding saline for 4 h at 5 °C. […] Ten different concentrations of the experimental compound were usually tested in quadruplicate. Nonspecific binding was measured in the presence of 1 mM (S)-nicotine hydrogen tartrate (Sigma-Aldrich). Data were fitted using GraphPad Prism software (Version 4 GraphPad Software, San Diego, CA, USA) by nonlinear regression analyses to a sigmoidal one-site model with variable slope.

[3] = target: T6, Aplysia californica AChBP (Aplysia californica, UniProt Q8WSF8); experiment: [3H]-epibatidine scintillation proximity binding assay, Ac AChBP; settings: for IC50: inhibition of [3H]-epibatidine binding, read-out: IC50 ± SEM, Ac BP
T6 construct: made in house
Method: as §1

[4] = target: T7, L. stagnalis AChBP C187S mutant (Lymnaea stagnalis, UniProt P58154, C206S); experiment: [3H]-epibatidine scintillation proximity binding assay, Ls AChBP C187S mutant; settings: for IC50: inhibition of [3H]-epibatidine binding
T7 construct: made in house
Method: as §1

molluscan AChBPs = experiment: Preincubation with toxin before [3H]-epibatidine addition, AChBPs; type: binding
Method: as §1

[5] = target: T8, human α4β2 nAChRs expressed in TsA201 cells (Homo sapiens, UniProt P17787+P43681); experiment: FlexStation membrane potential functional assay; type: cell-based; settings: for activation (membrane depolarization) of human α4β2 nAChRs: MeNTX up to 300 µM, relative to 5 µM ACh; for inhibition of ACh activation of human α4β2 nAChRs: response to 5 μM acetylcholine
T8 construct: expressed in transfected cells; host or cells: TsA201 cells
Method: TsA201 cells expressing human α4β2 were maintained in media consisting of Dulbecco’s Modified Eagle medium supplemented with 10% FBS, 100 units/mL penicillin and 100 μg/mL streptomycin, 2 mM L-glutamine, 0.5 mg/mL zeocin, and 0.6 mg/mL geneticin. Cells were grown in 75 cm^2 culture flasks, which were housed in a humidified incubator (Fisher Scientific, Atlanta, GA, USA at 37 °C in an atmosphere of 5% CO2. They were grown to around 80–90% confluence after harvesting with 0.25% trypsin and being split weekly at a subcultivation ratio of between 1:6 and 1:10.
Our experimental protocol was based on the initial study of Fitch et al.. Cells were seeded at a density of roughly 5 × 10^4 to 10^5 cells/well in 96-well flat-bottom black wall culture plates coated with 50 μg /mL poly-D-lysine hydrobromide (Sigma-Aldrich, 70–150 kDa) and grown overnight in 100 μL culture medium. A proprietary membrane potential dye obtained from Molecular Devices (San Diego, CA, USA) was prepared by dissolving one bottle of dye into 30 mL of Hanks Saline (pH = 7.4) containing 20 mM HEPES buffer. The cells were incubated with 100 μL of dye for 30 min at 37 °C prior to the robotically controlled concentration-response experiment. Serial dilutions of a compound for dose-response analysis were prepared in 96-well plates by evaporation of a methanolic stock solution and then reconstituted in the appropriate volume of Hanks saline. Fluid transfer and readings were performed by a FlexStation fluorimeter (Molecular Devices). Excitation and emission wavelengths were set to 530 nm and 565 nm with a cutoff of 550 nm. The first 17 s were used as a basal reading.

[6] = system: phencyclidine binding site of Torpedo nAChR ion channel; experiment: [3H]-TCP binding to Torpedo membranes; settings: results not shown
From the text: We have not yet deciphered the mechanism by which this small molecule can be an nAChR antagonist. […] We did observe that NTX inhibited [^3H]-TCP (radiolabelled analog of phencyclidine) binding to the Torpedo membranes, but this only occurred at NTX concentrations that were ~10X higher than were required to inhibit α-BTX binding (results not shown). Since most competitive antagonists are relatively large rigid molecules, elucidating the molecular mechanism by which NTX, an extremely small molecule, acts as an nAChR antagonist merits further investigation.

[7] = design: method as in earlier work; settings: cited from earlier work
[8] = rat brain membranes, [125I]-α-BTX displacement, mean of n experiments, read-out: IC50 ± SEM, α7
[9] = [125I]-α-BTX displacement, mean of n experiments, read-out: IC50 ± SEM, Torpedo electric organ
[10] = rat brain membranes, [3H]-cytisine displacement, mean of n experiments, read-out: IC50 ± SEM, α4β2
[11] = single [125I]-αBTX displacement experiment
[12] = single [125I]-αBTX displacement experiment, read-out: α7 IC50 (representative experiment, Figure 6)
[13] = Torpedo IC50 (single experiment, Figure 7 left), 30 min preincubation before BTX
[14] = single [3H]-cytisine displacement experiment
[15] = single [3H]-cytisine displacement experiment, read-out: α4β2 IC50 (individual experiment, Figure 3)

| Compound | IC50 (rat brain α7 nAChR; [8]) [µM] | IC50 [1, 9] [µM] | IC50 [2] [µM] | IC50 (Lymnaea stagnalis AChBP) [µM] | IC50 (rat brain α4β2 nAChRs; [10]) [µM] | IC50 [3] [µM] | α7 Hillslope (representative experiment, Figure 6) (rat brain α7 nAChR; [11]) | IC50 (rat brain α7 nAChR; [12]) [µM] | IC50 [1, 13] [µM] | affinity of Ls C187S mutant greater than for NTX ([4]; MeNTX versus NTX) | IC50 [4] [µM] | α4β2 Hillslope (individual experiment, Figure 3) (rat brain α4β2 nAChRs; [14]) | IC50 (rat brain α4β2 nAChRs; [15]) [µM] | effect of 24 hr preincubation on inhibition of [3H]-epibatidine binding (molluscan AChBPs) | affinity of Aplysia californica AChBP less than for NTX ([3]; MeNTX versus NTX) | activation (membrane depolarization) of human α4β2 nAChRs [5] | inhibition of ACh activation of human α4β2 nAChRs [5] | NTX concentrations inhibiting [3H]-TCP binding, higher than required to inhibit α-BTX binding [6] | dimethylamino pKa [7] |
| --- | --- | --- | --- | --- | --- | --- | --- | --- | --- | --- | --- | --- | --- | --- | --- | --- | --- | --- | --- |
| CN(C)C1CSCSC1 [DMA-DT, 5-dimethylamino-1,3-dithiane] | 640 ± 220 | > 500 | 41.4 ± 4.4 | 22 ± 2.4 | 160 ± 96 | 28 ± 0.27 | – | – | – | – | – | – | – | – | – | – | – | – | – |
| C[N+](C)(C)C1CSSC1 [MeNTX, N-methylnereistoxin] | 45 ± 2.3 | 9.3 ± 4.9 | 74 ± 5.2 | 163 ± 8.7 | 120 ± 13 | 260 ± 71 | -1.0 | 89.4 | 11.2 | ~ 4 fold | 41 | -1.5 | 121 | failed to detect any effect | ~ 3.5 fold | failed to activate | inhibited ACh activation | – | – |
| CN(C)C1CSSC1 [NTX, 4-dimethylamino-1,2-dithiolane, reference compound] | 390 ± 8.6 | 230 ± 71 | 110 ± 25 | 140 ± 24 | 60 ± 22 | 71 ± 1.9 | -2.6 | 826 | 254 | – | 160 | -1.5 | 81.6 | failed to detect any effect | – | no measurable depolarizing activity | inhibited ACh activation | ~ 10 X | 7.2 |
| C[N+](C)(C)C1CSCSC1 [TMA-DT, 5-trimethylamino-1,3-dithiane] | 90 ± 4.3 | 150 | 18 ± 2.8 | 3.7 ± 0.39 | 290 ± 60 | 20 ± 2 | – | – | – | – | – | – | – | – | – | – | – | – | – |
